From article PMC12185845, “How allosteric mutations control ligand binding in Lipocalin protein: odorant binding protein as a test case” (Cellular and Molecular Life Sciences: CMLS, 2025)
Numbering of substitutions follows the chain as printed.

What was measured:
Assay in all cases: isothermal titration calorimetry, single-site fit
Format in all cases: binding
rOBP1 (rOBP1-wt) [1] = molecular target: T1, rOBP1 (rOBP1-wt) (Rattus norvegicus, UniProt P08937, S50C/Y98C, form not given); conditions: 50 mM sodium phosphate, pH 7.5, 25 °C
T1 construct: gene Obp1f; S7
T1 sequence (P08937 16-172 S50C/Y98C): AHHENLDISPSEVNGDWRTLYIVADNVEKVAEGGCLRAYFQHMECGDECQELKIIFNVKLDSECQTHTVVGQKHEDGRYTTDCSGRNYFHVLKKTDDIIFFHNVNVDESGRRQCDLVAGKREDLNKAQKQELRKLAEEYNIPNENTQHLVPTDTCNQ

rOBP1 (rOBP1-wt) [2] = molecular target: T2, rOBP1 (rOBP1-wt) (Rattus norvegicus, UniProt P08937); conditions: 50 mM sodium phosphate, pH 7.5, 25 °C
T2 construct: gene Obp1f; S7
T2 sequence (P08937 16-172): T1 sequence (P08937 16-172 S50C/Y98C) with C35S, C83Y

rOBP1 (rOBP1-wt) [3] = molecular target: T2, rOBP1 (rOBP1-wt); conditions: 50 mM sodium phosphate, pH 7.5, 25 °C; ligand up to the millimolar range; distal allosteric position

Kd (rOBP1 (rOBP1-wt) [2])	SMILES	binding (ITC) (rOBP1 (rOBP1-wt) [1])	binding (ITC) (rOBP1 (rOBP1-wt) [3])
60 nM	C=CCc1ccc(O)c(OC)c1 [eugenol]	total loss of binding for the three odorants as no heat change was observed	indicating a complete loss of affinity for all ligands
441 nM	Cc1ccc(C(C)C)c(O)c1 [thymol]	total loss of binding for the three odorants as no heat change was observed	indicating a complete loss of affinity for all ligands
